Assay [1] has as its system S. aureus Human ATCC 25923. Kind of assay: MIC determination, S. aureus human ATCC 25923. As to conditions: Staphylococcus aureus, ATCC25923; Gram-positive; Mueller-Hinton medium, 24 h at 37° C. It counts as cell-based. In short, it runs like this: (§1)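 Broth microdilution in Mueller-Hinton medium, inoculum at OD 0.01, compounds (5 mg/mL stock in DMSO/methanol 50/50) serially diluted twofold. Plates incubated 24 h at 37° C. under humid atmosphere, read at OD 620 nm for MIC; duplicates.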

For assay [2], the system named is S. aureus Animal (340). Kind of assay: MIC determination, S. aureus animal (340). To be noted: Staphylococcus aureus; Gram-positive; Mueller-Hinton medium, 24 h at 37° C. In kind it is cell-based. In short, it runs like this: as §1
Assay [3] has as its system P. aeruginosa Animal (1051575). As to the kind of experiment: MIC determination, P. aeruginosa animal (1051575). It counts as cell-based. To be noted: Pseudomonas aeruginosa; Gram-negative; Mueller-Hinton medium, 24 h at 37° C. In a few lines: as §1
For assay [4], the system named is P. aeruginosa (1051575). As to the kind of experiment: Potentiation of doxycycline activity (combination MIC). It counts as cell-based, Pseudomonas aeruginosa. To be noted: for synergism when administered with doxycycline: doxycycline at 2 μg/mL; for MIC - P. aeruginosa (1051575): content of compound of formula (I) to restore the doxycycline activity (at 2 μg/mL): in presence of doxycycline 2 μg/mL, 24 hours at 37° C.

Assay [5] deals with P. aeruginosa (1051575). As to the kind of experiment: Potentiation of ampicillin activity (combination MIC). In kind it is cell-based, Pseudomonas aeruginosa. To be noted: ampicillin 4 μg/mL; concentration of compound required to restore antibiotic activity. The method, then:
This method requires the use of a 96-well plate: 100 μL of a liquid culture medium are placed in each well and then seeded with the microbial suspension prepared previously. The required volume to be seeded is calculated for an OD of 0.01, which corresponds to about 5×10^6 bacteria in each well. In this plate, the first line corresponds to a negative control (200 μL of sterile culture medium in each well), the second line corresponds to a positive control (100 μL of sterile culture medium+100 μL of the bacterial suspension), and the third line contains 192 μL of culture medium; 8 μL of compound of formula (I) to be tested are placed in each well. Thereafter, a cascade dilution is performed from this line. […] 92 μL of bacterial suspension are then added to lines 3 to 8. The results are read (the determination of the MIC (2 μg/mL of doxycycline) in the presence of X g/mL of compound of formula (I)) after 24 hours of incubation at 37° C. under a humid atmosphere. After 24 hours of incubation at 37° C., 40 μL of nitro tetrazolium iodide are added to each well to reveal the presence of live bacteria by staining the medium pink.
The procedure is identical to that indicated in Example 5 above. […]
(§2) The results are given in table V. They indicate the concentration of compound of formula (I) required to be able to restore the activity of the antibiotic under consideration.

In assay [6] the test system is P. aeruginosa (1051575). Kind of assay: Potentiation of erythromycin activity (combination MIC). In kind it is cell-based, Pseudomonas aeruginosa. As to conditions: erythromycin 2 μg/mL; concentration of compound required to restore antibiotic activity. The method, then:
This method requires the use of a 96-well plate: 100 μL of a liquid culture medium are placed in each well and then seeded with the microbial suspension prepared previously. The required volume to be seeded is calculated for an OD of 0.01, which corresponds to about 5×10^6 bacteria in each well. In this plate, the first line corresponds to a negative control (200 μL of sterile culture medium in each well), the second line corresponds to a positive control (100 μL of sterile culture medium+100 μL of the bacterial suspension), and the third line contains 192 μL of culture medium; 8 μL of compound of formula (I) to be tested are placed in each well. Thereafter, a cascade dilution is performed from this line. L of a doxycycline solution (1 mg dissolved in 20 mL) are then added to each well of lines 3 to 8 to obtain a final antibiotic concentration of 2 μg/mL. 92 μL of bacterial suspension are then added to lines 3 to 8. The results are read (the determination of the MIC (2 μg/mL of doxycycline) in the presence of X g/mL of compound of formula (I)) after 24 hours of incubation at 37° C. under a humid atmosphere. After 24 hours of incubation at 37° C., 40 μL of nitro tetrazolium iodide are added to each well to reveal the presence of live bacteria by staining the medium pink.
The procedure is identical to that indicated in Example 5 above. 8 μL of an antibiotic solution under consideration (1 mg dissolved in 20 mL) are added to obtain a final antibiotic concentration of 2 μg/mL instead of 8 μL of a doxycycline solution.
as §2

The subject of assay [7] is C. albicans. Kind of assay: Antifungal activity, cascade microdilution. It counts as cell-based. As to conditions: Candida albicans, 24 h, read-out: IC50 (μg/mL) C. albicans. (Dilution methods test growth across graded concentrations, often in twofold steps.)

≈ marks a conversion by molar mass, not a printed value. Marks after values point to notes of the source that are not given here.

Consider `CC(C)NC(=O)CC[C@@H](C)[C@H]1CCC2C3CCC4C[C@@H](NCCCN(C)CCCN)CC[C@]4(C)C3C[C@H](O)[C@@]21C` (stereo partly shown) [(25)], for which the values for the MIC in assay [1], in assay [2] and in assay [3] were 7 µg/mL (≈ 12.5 µM), 14 µg/mL (≈ 25 µM) and 28 µg/mL (≈ 49.9 µM), respectively. For the same compound, the “synergism when administered with doxycycline” value in assay [4] is listed as “noteworthy synergism”. For the same compound, in assay [4], the “MIC - P. aeruginosa (1051575): content of compound of formula (I) to restore the doxycycline activity (at 2 μg/mL)” value (“MIC - P. aeruginosa (1051575): content” for short) is 2 µg/mL. The “MIC P. aeruginosa (1051575) compound + ampicillin” value in assay [5] is 56 µg/mL. The “MIC P. aeruginosa (1051575) compound + erythromycin” value in assay [6] stood at 28 µg/mL.

On to `CC(C)NC(=O)CC[C@@H](C)[C@H]1CCC2C3C(C[C@H](O)[C@@]21C)[C@@]1(C)CC[C@H](NCCCNCCCN)CC1C[C@H]3O` (stereo partly drawn) [(5), 3β-norspermidino-N-isopropylcholamide], for which the MIC (commonly the lowest concentration found to suppress growth) in assay [1] worked out at 8 µg/mL (≈ 14.2 µM); in assay [2], 16 µg/mL (≈ 28.4 µM); in assay [3], 64 µg/mL (≈ 114 µM). Moreover, in assay [4], the “MIC - P. aeruginosa (1051575): content” value is 1 µg/mL. Moreover, the “MIC P. aeruginosa (1051575) compound + ampicillin” value in assay [5] turned out to be 64 µg/mL. Moreover, in assay [6], the “MIC P. aeruginosa (1051575) compound + erythromycin” value is reported as 32* μg/mL. In addition, the IC50 in assay [7] was 4 µg/mL (≈ 7.11 µM).

As to `CC(C)NC(=O)CC[C@@H](C)[C@H]1CCC2C3C(CC[C@@]21C)[C@@]1(C)CC[C@H](NCCCNCCCNCCCN)CC1C[C@H]3O` (stereo partly drawn) [(7), 3β-norspermino-N-isopropylchenodeoxycholamide], the MIC in assay [1] is 4 µg/mL (≈ 6.62 µM); in assay [2], 2 µg/mL (≈ 3.31 µM); in assay [3], 15 µg/mL (≈ 24.8 µM). In addition, the “MIC - P. aeruginosa (1051575): content” value in assay [4] is 1 µg/mL. Further, in assay [5], the “MIC P. aeruginosa (1051575) compound + ampicillin” value is 15 µg/mL. The “MIC P. aeruginosa (1051575) compound + erythromycin” value in assay [6] was found to be 15 µg/mL.

In the case of `CC(C)NC(=O)CC[C@@H](C)[C@H]1CCC2C3C(CC[C@@]21C)[C@@]1(C)CC[C@H](NCCCNCCCN)CC1C[C@@H]3O` (stereo partly drawn) [(15), 3β-norspermidino-N-isopropylursodeoxycholamide], the minimum inhibitory concentration (MIC) in assay [1] was determined as 28 µg/mL (≈ 51.2 µM); in assay [2], 56 µg/mL (≈ 102 µM); in assay [3] it was 112 µg/mL (≈ 205 µM). In addition, the “MIC - P. aeruginosa (1051575): content” value in assay [4] was determined as 1 µg/mL. Further, the “MIC P. aeruginosa (1051575) compound + ampicillin” value in assay [5] is 110 µg/mL. For the same compound, in assay [6], the “MIC P. aeruginosa (1051575) compound + erythromycin” value turned out to be 55 µg/mL. Further, in assay [7], the IC50 was 14 µg/mL (≈ 25.6 µM).

Take `CC(C)NC(=O)CC[C@@H](C)[C@H]1CCC2C3CCC4C[C@@H](NCCCNCCCN)CC[C@]4(C)C3C[C@H](O)[C@@]21C` (stereo partly drawn) [Compound (2), 3β-norspermidino-N-isopropyldeoxycholamide]: the MIC was found to be 4 µg/mL (≈ 7.31 µM) in assay [1], 2 µg/mL (≈ 3.66 µM) in assay [2] and 14 µg/mL (≈ 25.6 µM) in assay [3]. The “synergism when administered with doxycycline” value in assay [4] is “noteworthy synergism”. Moreover, the “MIC - P. aeruginosa (1051575): content” value in assay [4] worked out at 0.9 µg/mL. The “MIC P. aeruginosa (1051575) compound + ampicillin” value in assay [5] was 28 µg/mL. For the same compound, in assay [6], the “MIC P. aeruginosa (1051575) compound + erythromycin” value is on record as 3* μg/mL.

As to `CC(C)NC(=O)CC[C@@H](C)[C@H]1CCC2C3C(CC[C@@]21C)[C@@]1(C)CC[C@H](NCCCN(C)CCCN)CC1C[C@H]3O` (stereo partly drawn) [(27), 3β-(bis(3-aminopropyl)methylamine)-N-isopropylchenodeoxycholamide], the MIC in assay [1] worked out at 8 µg/mL (≈ 14.3 µM); in assay [2], 8 µg/mL (≈ 14.3 µM); in assay [3], 128 µg/mL (≈ 228 µM). The “MIC - P. aeruginosa (1051575): content” value in assay [4] stood at 2 µg/mL. The “MIC P. aeruginosa (1051575) compound + ampicillin” value in assay [5] turned out to be 64 µg/mL. Moreover, in assay [6], the “MIC P. aeruginosa (1051575) compound + erythromycin” value was found to be 28 µg/mL. For the same compound, the IC50 in assay [7] stood at 2 µg/mL (≈ 3.57 µM).

As for `CC(C)NC(=O)CC[C@@H](C)[C@H]1CCC2C3C(CC[C@@]21C)[C@@]1(C)CC[C@H](NCCCNCCCN)CC1C[C@H]3O` (stereo partly drawn) [(8), 3β-norspermidino-N-isopropylchenodeoxycholamide], the values for the MIC in assay [1], in assay [2] and in assay [3] were 6 µg/mL (≈ 11 µM), 3 µg/mL (≈ 5.49 µM) and 27 µg/mL (≈ 49.4 µM), respectively. For the same compound, the “MIC - P. aeruginosa (1051575): content” value in assay [4] came to 2 µg/mL. Moreover, the “MIC P. aeruginosa (1051575) compound + ampicillin” value in assay [5] was found to be 27 µg/mL. Besides, in assay [6], the “MIC P. aeruginosa (1051575) compound + erythromycin” value stood at 27 µg/mL. Also, the IC50 in assay [7] stood at 1 µg/mL (≈ 1.83 µM).

Turning to `CC(C)NC(=O)CC[C@@H](C)[C@H]1CCC2C3C(CC[C@@]21C)[C@@]1(C)CC[C@H](NCCCNCCCCNCCCN)CC1C[C@@H]3O` (stereo partly drawn) [Compound (35), 3β-spermino-N-isopropylursodeoxycholamide], the minimal inhibitory concentration (MIC) is 16 µg/mL (≈ 25.9 µM) in assay [1], 16 µg/mL (≈ 25.9 µM) in assay [2] and 64 µg/mL (≈ 104 µM) in assay [3]. Besides, in assay [4], the “MIC - P. aeruginosa (1051575): content” value stood at 2 µg/mL. Moreover, in assay [5], the “MIC P. aeruginosa (1051575) compound + ampicillin” value worked out at 64 µg/mL. In assay [6], the “MIC P. aeruginosa (1051575) compound + erythromycin” value is 32 µg/mL. Moreover, the IC50 in assay [7] is 1 µg/mL (≈ 1.62 µM).

Values taken from patent US10780101B2, “Amide derivatives of squalamine for the treatment of infections” (VIRBAC, priority 2016, dated 2020).
